Data on 20 molecules can be found in ChEMBL document CHEMBL4184194, “An appraisal on synthetic and pharmaceutical perspectives of pyrazolo[4,3-d]pyrimidine scaffold” (Bioorg Med Chem, 2018).

The structures appear in SMILES notation. Values after ≈ are worked out from the molar mass of the structure shown.

For experiment [1], the system named is K562. In words: Antiproliferative activity against human K562 cells. It counts as functional, cell-based.
Experiment [2] addresses Cyclin-dependent kinase 1/cyclin B1 (Homo sapiens, UniProt P06493). The experiment can be described thus: Inhibition of CDK1/CyclinB (unknown origin). It counts as protein-complex assay.
The subject of experiment [3] is Candida albicans. In words: Fungicidal activity against Candida albicans ATCC 10231 by two-fold serial dilution assay. It counts as functional.
Experiment [4] relates to Candida albicans. The experiment can be described thus: Antimicrobial activity against Candida albicans ATCC 10231 by two-fold serial dilution assay. The experiment is classed as functional.
The test system of experiment [5] is Nicotiana tabacum. In words: Anticytokinin activity against Nicotiana tabacum. It counts as functional, organism-based.
The test system of experiment [6] is Nicotiana tabacum. In words: Growth inhibition of cytokinin-autonomous tobacco cells. The experiment is classed as functional. The settings on record: for TGI: read-out: GI100.
Experiment [7] concerns Nicotiana tabacum. The experiment can be described thus: Toxicity in Nicotiana tabacum. The experiment is classed as organism-based.
The test system of experiment [8] is Nicotiana tabacum. In words: Growth inhibition of cytokinin-requiring tobacco cells. It counts as functional. The settings on record: for TGI: read-out: GI100.
Experiment [9] concerns the target Cyclin-dependent kinase 2/cyclin E1 (Homo sapiens, UniProt P24941). The experiment can be described thus: Inhibition of recombinant human full length N-terminal GST-tagged CDK2 (M1 to L298 residues)/CyclinE1 (M1 to A395 residues) expressed in baculovirus infected Sf9 insect cells using histone H1 as substrate by [gamma33P]ATP-based assay.
The test system of experiment [10] is K562. In words: Growth inhibition of human K562 cells after 72 hrs by Calcein AM dye based fluorescence assay. It counts as functional. The settings on record: K562, 72 h.
The subject of a further experiment is MCF7. The experiment can be described thus: Growth inhibition of human MCF7 cells after 72 hrs by Calcein AM dye based fluorescence assay. It counts as functional. Particulars: MCF7, 72 h.
Experiment [11] addresses Cyclin-dependent kinase 4/cyclin D1 (Homo sapiens, UniProt P11802). In words: Inhibition of recombinant human N-terminal GST-tagged CDK4 (S4 to E303 residues)/CyclinD1 (Q4 to I295 residues) expressed in Sf9 insect cells.
The next experiment deals with CDK7/Cyclin H/MNAT1 (Homo sapiens, UniProt P50613). In words: Inhibition of recombinant human full length N-terminal GST/His6-tagged CDK7 (M1 to F346 residues)/N-terminal His6-tagged CyclinH (M1 to L323 residues)/N-terminal His6-tagged MAT1 (M1 to S306 residues) expressed in Sf9 insect cells.
Chain of CDK7/Cyclin H/MNAT1 (P51946 whole entry, the tested form may be a part): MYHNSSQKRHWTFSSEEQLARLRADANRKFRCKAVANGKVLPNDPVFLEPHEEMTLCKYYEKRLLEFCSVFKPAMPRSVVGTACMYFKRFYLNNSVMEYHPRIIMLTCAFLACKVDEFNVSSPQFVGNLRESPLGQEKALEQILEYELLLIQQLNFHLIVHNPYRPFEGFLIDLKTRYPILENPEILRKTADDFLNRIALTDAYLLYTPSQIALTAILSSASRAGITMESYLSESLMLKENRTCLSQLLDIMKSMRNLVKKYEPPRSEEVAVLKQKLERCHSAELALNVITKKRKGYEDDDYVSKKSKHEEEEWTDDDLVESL
Chain of CDK7/Cyclin H/MNAT1 (P50613 whole entry, the tested form may be a part): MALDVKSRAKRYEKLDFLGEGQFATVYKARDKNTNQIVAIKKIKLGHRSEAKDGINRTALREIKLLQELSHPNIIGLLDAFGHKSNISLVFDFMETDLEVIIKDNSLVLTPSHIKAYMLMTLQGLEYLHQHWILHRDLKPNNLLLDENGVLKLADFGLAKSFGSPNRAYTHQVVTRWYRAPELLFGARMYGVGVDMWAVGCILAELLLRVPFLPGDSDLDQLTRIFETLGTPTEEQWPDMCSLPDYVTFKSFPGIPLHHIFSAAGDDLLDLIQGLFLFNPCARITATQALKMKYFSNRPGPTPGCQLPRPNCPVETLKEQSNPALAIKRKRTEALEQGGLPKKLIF
Chain of CDK7/Cyclin H/MNAT1 (P51948 whole entry, further chain, the tested form may be a part): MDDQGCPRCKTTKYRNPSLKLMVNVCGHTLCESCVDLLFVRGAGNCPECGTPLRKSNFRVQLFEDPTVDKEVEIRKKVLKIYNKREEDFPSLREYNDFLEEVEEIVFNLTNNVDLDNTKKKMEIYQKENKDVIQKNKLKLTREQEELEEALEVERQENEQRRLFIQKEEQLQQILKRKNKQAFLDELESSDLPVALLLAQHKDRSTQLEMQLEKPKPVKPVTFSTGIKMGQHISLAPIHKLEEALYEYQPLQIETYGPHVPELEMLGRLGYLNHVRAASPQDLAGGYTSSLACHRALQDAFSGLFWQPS
For a further experiment, the system named is Human alphaherpesvirus 1. The experiment can be described thus: Antiviral activity against HSV1 MP infected in African green monkey Vero cells assessed as inhibition of plaque formation after 48 hrs. The settings on record: Human alphaherpesvirus 1, MP, read-out: ED50 (the source's name). It counts as functional.
The target in the next experiment is CDK9/cyclin T1 (Homo sapiens, UniProt P50750). The experiment can be described thus: Inhibition of recombinant human full length N-terminal GST/His6-tagged CDK9 (M1 to F372 residues)/N-terminal His6-tagged CyclinT1 (M1 to K726 residues) expressed in Sf9 insect cells.
Chain of CDK9/cyclin T1 (O60563 whole entry, the tested form may be a part): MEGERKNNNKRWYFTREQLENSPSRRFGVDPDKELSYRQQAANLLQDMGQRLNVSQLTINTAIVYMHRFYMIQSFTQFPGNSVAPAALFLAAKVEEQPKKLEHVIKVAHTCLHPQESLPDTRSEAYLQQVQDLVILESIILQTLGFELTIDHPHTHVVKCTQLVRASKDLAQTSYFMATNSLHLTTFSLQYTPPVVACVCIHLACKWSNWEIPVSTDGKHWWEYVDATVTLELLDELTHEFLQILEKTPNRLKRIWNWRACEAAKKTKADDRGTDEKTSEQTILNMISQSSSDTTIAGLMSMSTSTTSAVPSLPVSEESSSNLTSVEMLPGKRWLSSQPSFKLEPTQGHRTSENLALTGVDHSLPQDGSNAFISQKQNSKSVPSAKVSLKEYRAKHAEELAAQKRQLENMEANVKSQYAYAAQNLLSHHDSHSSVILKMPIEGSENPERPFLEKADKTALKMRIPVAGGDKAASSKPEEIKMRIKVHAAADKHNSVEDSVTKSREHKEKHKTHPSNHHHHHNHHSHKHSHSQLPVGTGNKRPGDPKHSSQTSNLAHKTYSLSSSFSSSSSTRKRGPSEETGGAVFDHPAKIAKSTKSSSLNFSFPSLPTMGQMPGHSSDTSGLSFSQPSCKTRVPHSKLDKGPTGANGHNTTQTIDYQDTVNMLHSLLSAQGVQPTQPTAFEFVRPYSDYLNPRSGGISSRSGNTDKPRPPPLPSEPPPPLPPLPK
Chain of CDK9/cyclin T1 (P50750 whole entry, the tested form may be a part): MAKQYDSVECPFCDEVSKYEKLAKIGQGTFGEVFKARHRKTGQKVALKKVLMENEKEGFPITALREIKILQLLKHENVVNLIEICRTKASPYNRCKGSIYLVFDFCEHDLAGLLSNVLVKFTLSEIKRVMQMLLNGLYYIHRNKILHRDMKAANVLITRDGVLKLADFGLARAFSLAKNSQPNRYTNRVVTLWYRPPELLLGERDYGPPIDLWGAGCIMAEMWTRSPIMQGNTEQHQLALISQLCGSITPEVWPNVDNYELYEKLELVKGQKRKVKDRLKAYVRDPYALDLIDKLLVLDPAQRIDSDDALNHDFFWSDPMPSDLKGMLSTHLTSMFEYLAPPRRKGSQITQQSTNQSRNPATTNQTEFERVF
Another experiment addresses CDK6/cyclin D1 (Homo sapiens, UniProt Q00534). The experiment can be described thus: Inhibition of recombinant human full length N-terminal GST-tagged CDK6 (M1 to A326 residues)/CyclinD1 (Q4 to I295 residues) expressed in Sf9 insect cells.
Experiment [12] concerns Semliki Forest virus. The experiment can be described thus: Antiviral activity against Semliki forest virus infected in Swiss Webster mouse assessed as mean survival time at 100 mg/kg, ip. The experiment is classed as functional.
Experiment [13] concerns Semliki Forest virus. The experiment can be described thus: Antiviral activity against Semliki forest virus infected in Swiss Webster mouse assessed as mean survival time at 30 mg/kg, ip. The experiment is classed as functional.
The subject of experiment [14] is Semliki Forest virus. The experiment can be described thus: Antiviral activity against Semliki forest virus infected in Swiss Webster mouse assessed as mouse survival at 100 mg/kg, ip measured after 18 to 24 hrs. It counts as functional.
In experiment [15] the test system is Semliki Forest virus. The experiment can be described thus: Antiviral activity against Semliki forest virus infected in Swiss Webster mouse assessed as mouse survival at 50 mg/kg, ip measured after 18 to 24 hrs. The experiment is classed as functional.
Experiment [16] has as its system Semliki Forest virus. In words: Antiviral activity against Semliki forest virus infected in Swiss Webster mouse assessed as mean survival time at 10 mg/kg, ip. The experiment is classed as functional.
Experiment [17] has as its system Semliki Forest virus. In words: Antiviral activity against Semliki forest virus infected in Swiss Webster mouse assessed as mean survival time at 200 mg/kg, ip. The experiment is classed as functional.
The subject of experiment [18] is Semliki Forest virus. In words: Antiviral activity against Semliki forest virus infected in Swiss Webster mouse assessed as mean survival time at 50 mg/kg, ip. It counts as functional.
Experiment [19] relates to Semliki Forest virus. The experiment can be described thus: Antiviral activity against Semliki forest virus infected in Swiss Webster mouse assessed as mouse survival at 200 mg/kg, ip measured after 18 to 24 hrs. It counts as functional.
The test system of experiment [20] is Semliki Forest virus. In words: Antiviral activity against Semliki forest virus infected in Swiss Webster mouse assessed as mouse survival at 30 mg/kg, ip measured after 18 to 24 hrs. It counts as functional.
Experiment [21] deals with Semliki Forest virus. In words: Antiviral activity against Semliki forest virus infected in Swiss Webster mouse assessed as mouse survival at 10 mg/kg, ip measured after 18 to 24 hrs. It counts as functional.
Experiment [22] deals with Pseudomonas aeruginosa. The experiment can be described thus: Antimicrobial activity against Pseudomonas aeruginosa ATCC 9027 by two-fold serial dilution assay. It counts as functional.
The test system of the next experiment is Escherichia coli. The experiment can be described thus: Bactericidal activity against Escherichia coli NCTC 10418 by two-fold serial dilution assay. The experiment is classed as functional.
The next experiment concerns Staphylococcus aureus. In words: Bactericidal activity against Staphylococcus aureus ATCC 6538 by two-fold serial dilution assay. It counts as functional.
Experiment [23] concerns Pseudomonas aeruginosa. The experiment can be described thus: Bactericidal activity against Pseudomonas aeruginosa ATCC 9027 by two-fold serial dilution assay. The experiment is classed as functional.

Chain of Cyclin-dependent kinase 1/cyclin B1 (P06493 whole entry): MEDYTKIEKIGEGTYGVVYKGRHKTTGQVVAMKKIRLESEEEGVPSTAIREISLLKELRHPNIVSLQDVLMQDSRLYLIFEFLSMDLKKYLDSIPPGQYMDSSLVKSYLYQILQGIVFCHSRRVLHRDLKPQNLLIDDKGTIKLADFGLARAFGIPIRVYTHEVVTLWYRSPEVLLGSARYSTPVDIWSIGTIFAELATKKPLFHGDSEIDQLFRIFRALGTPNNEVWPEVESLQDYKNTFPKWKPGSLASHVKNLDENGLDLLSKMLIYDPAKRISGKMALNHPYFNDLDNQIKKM
Chain of Cyclin-dependent kinase 1/cyclin B1 (P14635 whole entry, further chain): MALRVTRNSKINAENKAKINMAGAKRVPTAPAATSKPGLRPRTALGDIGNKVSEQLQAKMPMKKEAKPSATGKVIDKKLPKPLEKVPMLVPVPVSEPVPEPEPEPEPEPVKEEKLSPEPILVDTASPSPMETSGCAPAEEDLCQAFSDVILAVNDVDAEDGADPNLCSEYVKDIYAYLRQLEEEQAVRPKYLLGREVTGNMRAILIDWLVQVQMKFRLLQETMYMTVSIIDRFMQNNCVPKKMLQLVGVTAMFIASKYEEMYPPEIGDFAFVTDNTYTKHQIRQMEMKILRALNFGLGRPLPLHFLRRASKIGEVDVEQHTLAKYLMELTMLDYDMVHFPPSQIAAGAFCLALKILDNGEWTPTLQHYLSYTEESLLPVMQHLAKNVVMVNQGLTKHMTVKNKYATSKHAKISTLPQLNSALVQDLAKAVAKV
Chain of CDK6/cyclin D1 (P24385 whole entry, the tested form may be a part): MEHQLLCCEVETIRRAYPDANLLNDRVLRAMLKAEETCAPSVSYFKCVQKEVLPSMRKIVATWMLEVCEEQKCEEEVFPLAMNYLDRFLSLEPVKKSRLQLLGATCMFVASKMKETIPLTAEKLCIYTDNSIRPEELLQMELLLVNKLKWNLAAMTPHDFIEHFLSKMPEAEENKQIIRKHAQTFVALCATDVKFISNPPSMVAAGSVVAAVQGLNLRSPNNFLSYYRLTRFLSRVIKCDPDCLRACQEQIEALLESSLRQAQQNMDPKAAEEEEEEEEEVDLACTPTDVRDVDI
Chain of CDK6/cyclin D1 (Q00534 whole entry, the tested form may be a part): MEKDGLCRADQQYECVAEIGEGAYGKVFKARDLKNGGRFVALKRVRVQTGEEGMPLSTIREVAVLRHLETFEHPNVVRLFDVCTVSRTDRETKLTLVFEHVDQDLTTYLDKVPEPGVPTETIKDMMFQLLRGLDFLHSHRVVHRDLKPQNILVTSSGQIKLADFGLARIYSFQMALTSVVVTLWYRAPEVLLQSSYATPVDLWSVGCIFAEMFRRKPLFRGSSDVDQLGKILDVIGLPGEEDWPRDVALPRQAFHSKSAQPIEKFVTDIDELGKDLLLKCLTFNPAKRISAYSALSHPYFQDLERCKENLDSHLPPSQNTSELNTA
Chain of Cyclin-dependent kinase 4/cyclin D1 (P11802 whole entry, the tested form may be a part): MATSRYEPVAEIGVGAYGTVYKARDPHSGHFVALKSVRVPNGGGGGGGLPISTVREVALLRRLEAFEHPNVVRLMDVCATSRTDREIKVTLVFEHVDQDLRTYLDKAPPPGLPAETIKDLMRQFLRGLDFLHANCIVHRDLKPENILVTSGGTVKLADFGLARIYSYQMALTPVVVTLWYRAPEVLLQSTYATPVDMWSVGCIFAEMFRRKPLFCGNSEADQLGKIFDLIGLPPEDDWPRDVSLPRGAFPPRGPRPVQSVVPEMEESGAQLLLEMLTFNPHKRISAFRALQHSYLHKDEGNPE
Chain of Cyclin-dependent kinase 4/cyclin D1 (P24385 whole entry, further chain, the tested form may be a part): as the sequence (P24385 whole entry, the tested form may be a part) above

`CC(C)c1n[nH]c2c(NCc3ccccc3O)ncnc12`: the IC50 (commonly the midpoint of a concentration-inhibition curve) in the experiment with K562 [1] came to 54 µM; in experiment [2], 0.44 µM.

In the case of `O=c1[nH]cnc2c(-c3ccc(Br)cc3)n[nH]c12`, the MFC – broadly, the lowest tested concentration that kills the fungus rather than only halting it – in the experiment with Candida albicans [3] came to 250 mg/L (≈ 859 µM). Further, the lowest concentration to inhibit growth with Candida albicans [4] (MIC) was 250 mg/L (≈ 859 µM).

For `CCCCCNc1ncnc2c(C)n[nH]c12`, the concentration for half-maximal inhibition (IC50) was 0.03 µM in the experiment with Nicotiana tabacum [5] and 0.2 µM in the experiment on Nicotiana tabacum [7]. The concentration for 50% growth inhibition (GI50) – broadly, the concentration at which growth is held to half of that of the control – stood at 0.025 µM in the experiment with Nicotiana tabacum [6] and 0.02 µM in the experiment with Nicotiana tabacum [8]. Besides, the TGI with Nicotiana tabacum [6] and with Nicotiana tabacum [8] was 0.05 µM throughout.

Turning to `Cc1n[nH]c2c(NCCC(C)C)ncnc12`, the IC50 in the experiment on Nicotiana tabacum [5] amounted to 0.1 µM; in the experiment on Nicotiana tabacum [7], 0.73 µM.

`CC[C@@H](CO)Nc1nc(NCc2ccccc2N)c2[nH]nc(C(C)C)c2n1`: the IC50 in experiment [9] came out at 0.0153 µM. Besides, the GI50 in the experiment on K562 [10] is 22.3 µM; with MCF7 it was 10.9 µM.

With `CC(C)c1n[nH]c2c(NCc3ccccc3)nc(NC3CCC(N)CC3)nc12` (stereo not given), the IC50 in [11] is 6.6 µM; at CDK7/Cyclin H/MNAT1 it was over 100 µM.

For the molecule `Cc1nn([C@@H]2O[C@H](CO)[C@@H](O)[C@H]2O)c2c(=O)n(-c3ccc(Cl)cc3)cnc12`, the EC50 with Human alphaherpesvirus 1 is 50 µM.

For the molecule `Cc1n[nH]c2c(NCc3ccccc3)ncnc12`, in the experiment on Nicotiana tabacum [6], the GI50 came out at 0.03 µM and the TGI was 0.1 µM. Further, in the experiment with Nicotiana tabacum [8], it took 0.04 µM to inhibit growth by half (GI50) and the TGI was determined as 0.15 µM.

`CCCCCCNc1ncnc2c(C)n[nH]c12`: the IC50 with Nicotiana tabacum [5] was found to be 0.03 µM; in the experiment with Nicotiana tabacum [7] it was 0.5 µM.

Turning to `COc1ccc(Cn2cnc3c(C)nn([C@@H]4O[C@H](CO)[C@@H](O)[C@H]4O)c3c2=O)cc1`, the EC50 in the experiment on Human alphaherpesvirus 1 turned out to be 49.5 µM.

Take `CC(C)c1n[nH]c2c(NCc3ccccc3)nc(NC3CCCCC3N)nc12` (stereo not given): the IC50 is over 100 µM on CDK7/Cyclin H/MNAT1, over 1 µM on CDK9/cyclin T1 and over 100 µM on CDK6/cyclin D1.

With `Cn1nc([C@@H]2O[C@H](CO)[C@@H](O)[C@H]2O)c2nc(N)[nH]c(=O)c21`, the MST was 8 days with Semliki Forest virus [12]; 9.2 days in the experiment on Semliki Forest virus [13]; 9.6 days with Semliki Forest virus [16]; 7 days in the experiment with Semliki Forest virus [17]; 6 days with Semliki Forest virus [18]. Further, the survival at 100 mg/kg in the experiment with Semliki Forest virus [14] was found to be 67%. Also, in the experiment on Semliki Forest virus [15], the survival at 50 mg/kg came out at 67%. Besides, the survival at 200 mg/kg in the experiment on Semliki Forest virus [19] worked out at 58%. Moreover, in the experiment on Semliki Forest virus [20], the survival at 30 mg/kg came out at 50%. Moreover, the survival at 10 mg/kg with Semliki Forest virus [21] turned out to be 8%.

As for `CCCCn1cnc2c(C)nn([C@@H]3O[C@H](CO)[C@@H](O)[C@H]3O)c2c1=O`, in the experiment with Human alphaherpesvirus 1, the EC50 is 152 µM.

On to `CC(C)c1n[nH]c2c(NCc3ccccc3N)nc(NC[C@@H](C)O)nc12`, for which the half-inhibitory concentration (IC50) in experiment [9] is 0.0165 µM. Besides, the GI50 was 15.5 µM with K562 [10] and 4.4 µM with MCF7.

As for `CC[C@H](CO)Nc1nc(NCc2ccccc2N)c2[nH]nc(C(C)C)c2n1`, in experiment [9], the IC50 came out at 0.0105 µM. Further, the values for the GI50 in the experiment on K562 [10] and with MCF7 were 9.2 µM and 2.8 µM, respectively.

For `CC1(C)S[C@@H]2[C@H](NC(=O)[C@H](N)c3ccccc3)C(=O)N2[C@H]1C(=O)O` [AMPICILLIN], the lowest concentration to inhibit growth with Pseudomonas aeruginosa [22] (MIC) was 250 mg/L (≈ 715 µM). Further, the minimal bactericidal concentration (MBC) (in general, the smallest concentration meeting the test's criterion for killing) against Escherichia coli was 31.2 mg/L (≈ 89.4 µM); in the experiment with Staphylococcus aureus, 15.6 mg/L (≈ 44.7 µM); against Pseudomonas aeruginosa [23], 500 mg/L (≈ 1430 µM).

`Clc1ccccc1C(c1ccccc1)(c1ccccc1)n1ccnc1` [CLOTRIMAZOLE] yielded an MFC against Candida albicans [3] of 15.6 mg/L (≈ 45.3 µM). Moreover, in the experiment with Candida albicans [4], the minimal inhibitory concentration (MIC) (as a rule, the least concentration at which growth counts as inhibited) came out at 7.81 mg/L (≈ 22.6 µM).

Regarding `O=c1[nH]c(=O)n([C@H]2C[C@H](O)[C@@H](CO)O2)cc1I` [IDOXURIDINE], the EC50 in the experiment on Human alphaherpesvirus 1 was 1.2 µM.

As for `Nc1nc(=O)c2sc(=O)n([C@@H]3O[C@H](CO)[C@@H](O)[C@H]3O)c2[nH]1` [ISATORIBINE], the MST in the experiment with Semliki Forest virus [12] came out at 8 days. Also, the survival at 100 mg/kg in the experiment with Semliki Forest virus [14] amounted to 92%.

In the experiment on K562 [1], `Cn1cnc2c(NCc3ccccc3)nc(NCCO)nc21` [OLOMOUCINE] yielded a concentration for half-maximal inhibition (IC50) of 163 µM.
